We go through 8 molecules from patent US20210107886A1, “PREPARATION OF CYCLIC ACETALS FOR FUEL” (TRIAD NATIONAL SECURITY, LLC, priority 2019, published 2021).

The structures appear in SMILES notation. Like-named read-outs stand apart in the source and are kept apart here.

Series [1] in a line: Density (Anton Paar SVM 3001). The class given is physicochemical. The note with it: 25° C. How it is done: (§1) All chemicals and reagent grade solvents were obtained from commercial vendors and were used as received. ^1H and ^13C NMR spectra were obtained at room temperature on a Bruker AV400 MHz spectrometer, with chemical shifts (6) referenced to the residual solvent signal (^1H and ^13C). GC/MS analysis was carried out using a Hewlett-Packard 6890 GC system equipped with a Hewlett-Packard 5973 mass selective detector. FT-IR measurements were collected on a Perkin Elmer Spectrum Two FT-IR, where a drop of compound was pressed between two KBr plates. FTIR shifts were: very strong (vs), strong (s), medium (m), and weak (w). Combustion calorimeter measurements were performed using an IKA C1 compact combustion calorimeter, the NHOC was calculated by taking into consideration the hydrogen content and subtracting from the gross heat of combustion. DSC measurements were performed using a Netzsch DCS 204 F1 Phoenix. Viscosity and density measurements were performed using an Anton Paar SVM 3001. Elemental analysis was performed by Atlantic Microlabs. YSI measurements were conducted at Yale University.
(§2) Two additional factors to consider for diesel fuel formulation are density and net heat of combustion (NHOC). Typically, for a chemical compound to be able to be blended with diesel, it should not decrease the density of the fuel mixture below 0.82 g mL-^1, as the energy content of the fuel brought into the engine is dependent on the density of the fuel.^17, 25 Compounds 1-5 maintained densities slightly higher than that of biodiesel, H1-H3, and petroleum diesel. A related metric is the NHOC, which is a measure of the energy contained in a given quantity of a compound. Additionally reported in Table 2 is the lower heating value (LHV) of compounds 1-5. The LHV of a fuel is defined as the amount of heat released by combusting a specified quantity (initially at 25° C.) and returning the temperature of the combustion products to 150° C., which assumes the latent heat of vaporization of water in the reaction products is not recovered.

The nature of series [2]: Kinematic viscosity (Anton Paar SVM 3001). The class given is physicochemical. The conditions noted are these: 40° C. How it is done:
as §1
The physical properties of the five distinct dioxolanes obtained were analyzed to understand their potential as suitable fuel components.^4-5, 8, 16, 18-20 A tabulated summary of these properties are provided in Table 2. The first metric considered was viscosity. […] If a fuel's viscosity falls outside of the ASTM D 975 specification (>4 mm^2 s^−1), it often leads to poor atomization of the fuel, which results in poor combustion and a subsequent loss of power and decrease in fuel economy.^7 In this respect, compounds 1-5 could be used to thin biodiesel to meet standards for petroleum diesel.

Series [3] in a line: Net heat of combustion (combustion calorimeter). Type of series: physicochemical. As to the method:
as §1, §2

The next series in a line: Water solubility. The class given is physicochemical.
The nature of series [4]: Lower heating value (LHV). Type of series: physicochemical.
Excerpt: as §2

The nature of a further series: Boiling point. The class given is physicochemical.
The nature of the next series: Flash point. Type of series: physicochemical.
A short description of series [5]: Cloud point of dioxolane blends with 7-component surrogate diesel. The class given is physicochemical. How it is done: The dioxolanes were blended in percentages of 10%, 20%, or 30% with a 7-component surrogate diesel.
The values range from −9.9° C. to −13.3° C. The numbers of the samples correspond with the dioxolanes as-referenced in FIG. 30. Cloud point is a quality specification for diesel fuels. This is an indicator of the tendency of a fuel to form wax crystals when cold. These crystals can clog the atomizer that injects fuel into the combustion chamber of a diesel engine. Cloud point specifications are a maximum temperature. A material with lower cloud point is more desirable.

For series [6] the following is noted: 25° C.; taken from references; cited from earlier work.
For series [7] the following is noted: 40° C.; taken from references; cited from earlier work.
The conditions of series [8]: taken from references; cited from earlier work.
For series [9] the following is noted: taken from references, cited from earlier work; for Freezing/MP: freezing point: first value of cell; for Freezing/MP: melting point: second value of cell.
[10] abbreviates: 10% dioxolane in 7-component surrogate diesel (surrogate alone −10.5 ° C.).
The mark [11] stands for this setting: 20% dioxolane in 7-component surrogate diesel (surrogate alone −10.5 ° C.).
Setting [12] is: 30% dioxolane in 7-component surrogate diesel (surrogate alone −10.5 ° C.).

One may read the solubility as the concentration that dissolves in the medium under given conditions. The low end stands for a poorly soluble substance, the high end for a readily soluble substance. `CCCCCC1OC(C)C(C)O1` (centres unmarked) [Compound 4, 4,5-Dimethyl-2-pentyl-1,3-dioxolane] came in with a Density in [1] of 0.887 g/mL. The molecule also showed a Viscosity in series [2] of 1.49 mm^2 s^−1. Besides, the “NHOC (net heat of combustion)” value in series [3] was 29.20 mJ/L. For the same molecule, the solubility in “Water solubility” is below 40 µg/mL. In series [4], the “LHV (lower heating value)” value was 32.92 mJ/kg. Also, in “Boiling point”, the “Boiling Point” value came to 177 °C. Besides, the “Flash Point” value in “Flash point” amounted to 69.5 °C. In addition, the “Cloud point of blend” value is −10.1 °C in series [5] (setting [10]), −10.8 °C in series [5] (setting [11]) and −10.4 °C in series [5] (setting [12]).

With `CCCCCCCCCCCC1(C)OCCO1` [H3, 2-methyl-2-undecyl-1,3-dioxolane], in series [6], the Density was 0.883 g/mL. Also, in series [7], the Viscosity is given as 4.98 mm^2 s^−1. The “NHOC (net heat of combustion)” value in series [8] is 32.28 mJ/L. In addition, in series [9], the “Freezing/MP: freezing point” value is −25 °C and the “Freezing/MP: melting point” value was 0 °C.

For the molecule `CCCCCCCC1OC(C)C(C)O1` (centres unmarked) [Compound 5, 4,5-Dimethyl-2-heptyl-1,3-dioxolane], the Density in series [1] is 0.883 g/mL. Moreover, the Viscosity in series [2] is 2.34 mm^2 s^−1. In addition, in series [3], the “NHOC (net heat of combustion)” value turned out to be 30.06 mJ/L. For the same molecule, the solubility in the series “Water solubility” was below 40 µg/mL. Also, the “LHV (lower heating value)” value in [4] was found to be 34.04 mJ/kg. For the same molecule, the “Boiling Point” value in the series “Boiling point” worked out at 188 °C. In the series “Flash point”, the “Flash Point” value was determined as 79.5 °C. For the same molecule, the results for the “Cloud point of blend” value in series [5] (setting [10]), in [5] (setting [11]) and in series [5] (setting [12]) were −9.9 °C, −10.8 °C and −11.6 °C, respectively.

As for `CCCCCCCCCCCC1(C)OC(C)C(C)O1` (centres unmarked) [H1, 2,4,5-trimethyl-2-undecyl-1,3-dioxolane], the Density in series [6] was 0.868 g/mL. Also, the Viscosity in series [7] is listed as 4.44 mm^2 s^−1. Moreover, the “NHOC (net heat of combustion)” value in series [8] is 31.99 mJ/L. Further, in [9], the “Freezing/MP: freezing point” value is −51 °C and the “Freezing/MP: melting point” value is −18 °C.

`CCCCC(CC)C1OC(C)C(C)O1` (centres unmarked) [Compound 2, 2-(1-Ethylpentyl)-4,5-dimethyl-1,3-dioxolane] displayed a Density in series [1] of 0.885 g/mL. This molecule also registered a Viscosity in series [2] of 1.88 mm^2 s^−1. For the same molecule, the “NHOC (net heat of combustion)” value in series [3] amounted to 30.41 mJ/L. In addition, the solubility in the series “Water solubility” was below 40 µg/mL. The “LHV (lower heating value)” value in [4] came to 34.36 mJ/kg. The “Boiling Point” value in “Boiling point” was 184 °C. Also, the “Flash Point” value in “Flash point” is 58.3 °C. The entries for the “Cloud point of blend” value in series [5] (setting [10]), in series [5] (setting [11]) and in [5] (setting [12]) were −10.3 °C, −10.8 °C and −12.5 °C, respectively.

In the case of `CCCCCCCCCCCC1(C)OCC(C)O1` (centres unmarked) [H2, 2,4-dimethyl-2-undecyl-1,3-dioxolane], the Density in series [6] was 0.872 g/mL. Also, the Viscosity in [7] was 5.15 mm^2 s^−1. In series [8], the “NHOC (net heat of combustion)” value is 31.99 mJ/L. Besides, in series [9], the “Freezing/MP: freezing point” value was −48 °C and the “Freezing/MP: melting point” value was −14 °C.

For the molecule `CCCC1OC(C)C(C)O1` (centres unmarked) [Compound 3, 4,5-Dimethyl-2-propyl-1,3-dioxolane], in series [1], the Density is 0.894 g/mL. The same molecule had a Viscosity in [2] of 0.94 mm^2 s^−1. In series [3], the “NHOC (net heat of combustion)” value turned out to be 27.67 mJ/L. In addition, the solubility in the series “Water solubility” is below 40 µg/mL. Further, the “LHV (lower heating value)” value in [4] was found to be 30.95 mJ/kg. Moreover, the “Boiling Point” value in the series “Boiling point” worked out at 161 °C. For the same molecule, the “Flash Point” value in “Flash point” was determined as 42.5 °C. Also, the “Cloud point of blend” value is −11.5 °C in [5] (setting [10]), −12 °C in [5] (setting [11]) and −13.3 °C in series [5] (setting [12]).

Consider `CCC(CC)C1OC(C)C(C)O1` (centres unmarked) [Compound 1, 2-(1-Ethylpropyl)-4,5-dimethyl-1,3-dioxolane], for which the Density in [1] was 0.893 g/mL. This molecule gave a Viscosity in series [2] of 1.26 mm^2 s^−1. In addition, in [3], the “NHOC (net heat of combustion)” value stood at 29.45 mJ/L. In addition, the solubility in “Water solubility” is below 40 µg/mL. Further, the “LHV (lower heating value)” value in series [4] is 32.98 mJ/kg. In addition, in “Boiling point”, the “Boiling Point” value turned out to be 174 °C. Further, in “Flash point”, the “Flash Point” value came out at 54.4 °C. Besides, the results for the “Cloud point of blend” value in series [5] (setting [10]), in [5] (setting [11]) and in series [5] (setting [12]) were −10.3 °C, −10.8 °C and −10.8 °C, respectively.
